Measured values published in patent publication US20240299448A1, “METHODS FOR PREVENTING AND TREATING CHRONIC PAIN” (priority 2023, published 2024).

Legend:
Format in all cases: in vivo, mouse
[1] = system: mice with hind paw injection of complete Freund's adjuvant (CFA); assay: CFA inflammatory pain, von Frey mechanical paw-withdrawal threshold; details: for allodynia during the administration period after CFA / duration of the overall allodynia episode produced by CFA: drug daily Day 0 to Day 6, diclofenac 25, morphine 5, gabapentin 100 mg/kg/day i.p., lidocaine 2% 20 μl s.c. hind paw, vs saline; for development of allodynia after CFA in dexamethasone-treated mice: hind paw injection on Day 3 and Day 5, ipsilateral to CFA, with dexamethasone; for duration of CFA allodynia in the absence of dexamethasone / CFA-induced mechanical allodynia in the absence of dexamethasone: hind paw injection on day 3 and day 5, no dexamethasone; for CFA-induced mechanical allodynia in the absence of dexamethasone: day 6 or any other time point, vs vehicle
Procedure: Mice: CD-1 male and female mice aged 6-12 weeks (ICR:Crl, Charles River, St. Constant, QC) were used in these experiments. All mice were housed in standard shoebox cages with 2-4 (same-sex) per cage in a light (14:10 h, lights on at 07:00 h) and temperature-controlled (20±1° C.) environment with ad libidum access to food (Harlan Teklad 8604) and tap water. Mice were acclimated to the vivarium for 7 days post-arrival and before testing. Each mouse was used in a single drug experiment. Equal numbers of male and female mice were included in each cohort.
Drugs: Dexamethasone (PromoCell, Heidelberg, Germany) was administered via daily subcutaneous injections at a dosage of 0.5 mg/kg/day. Diclofenac, morphine, and gabapentin were administered via intraperitoneal (i.p.) injection at a dose of 25 mg/kg/day, 5 mg/kg/day, and 100 mg/kg/day, respectively. Lidocaine was administered via subcutaneous (s.c.) injection of 20 μl of 2% lidocaine into the plantar hind paw. All drugs other than dexamethasone were purchased from Sigma-Aldrich (St. Louis, MO, USA). Anti-Ly6G (BioX Cell [InVivoPlus anti-mouse Ly6G/Ly6C (Gr-1)]) and its isotype control (BioX Cell [InVivoPlus rat IgG2b isotype control, anti-keyhole limpet hemocyanin]) were injected at a dose of 125 μg/day. S100A8 and S100A9 were injected (10 μl) into the plantar surface of the inflamed (see below) hind paw at a dose of 1 μg/day.
Neutrophils: Neutrophils were isolated using the EasySep Mouse Neutrophil Enrichment kit (Stem Cell Technologies, Vancouver, Canada) as per manufacturer's instructions. Briefly, blood was collected by cardiac puncture in a 21-gauge needle coated with 10% EDTA and pooled from 2-3 mice in PBS/2 mM EDTA. Red blood cells were lysed after incubation in 0.83% NH4Cl for 10 min at 4° C., with the reaction stopped by adding PBS+10% FBS. Cells were centrifuged at 300 g for 5 min and resuspended in PBS+10% FBS. Cells were then incubated with rat serum and enrichment cocktail for 15 min at 4° C. and centrifuged at 300 g for 10 min. Cells were then resuspended in biotin selection cocktail for 15 min at 4° C., followed by magnetic beads for an additional 10 min, and placed into the separation magnet for 3 min. Non adherent cells were removed, and adherent cells washed off of the walls of the tube and resuspended in PBS for injection. Cells (5×10^6, in 10 μl) were injected into the plantar surface of the inflamed hind paw (see below) of mice within 30 min of isolation.
In most experiments, complete Freud's adjuvant (50% CFA, 20 μl volume) was injected into the plantar surface of the mouse's left hind paw as a model of inflammatory pain.
Before and after all injuries, mechanical paw-withdrawal threshold was measured with von Frey filaments using the up-down staircase method of Dixon (Chaplan et al., 1994), as previously described (Mogil et al., 2006). In every experiment, a baseline threshold determination was made on Day 1. Drugs or cells were administered daily from Day 0 to Day 6 (dexamethasone, diclofenac, gabapentin, lidocaine), on Day 3 and Day 5 (S100A8, S100A9, and neutrophils), or every other day from Day 0 to Day 20 (anti-Ly6G). von Frey testing on Day 6 occurred 1 hour after the drug injection on that day. Testing continued until both vehicle and drug groups had returned to their baseline statistically (with the exception of CFA+diclofenac), even though not all individual mice had necessarily recovered. Thus, in an attempt to minimize the duration that mice remained in pain, the length of experiments were different depending on the assay used and the purpose of the experiment, from 40 days post drug to 120 days post-drug.
Data analysis: Time course data of von Frey thresholds are shown graphically. To quantify the acute effects of drugs on mechanical thresholds during drug exposure (on Day 4-6 after CCI or CFA), the percentage of maximum possible allodynia was quantified as: % allodynia=[(baseline threshold−post-drug threshold)/baseline threshold]×100. […]

[2] = system: CD-1 mice with plantar incision in the hind paw; assay: Plantar incision postoperative pain, von Frey mechanical sensitivity
Procedure: CD-1 mice were housed in conventional shoebox cages with 3-4 mice per cage, in temperature-controlled environment (20±1° C.), on a 12:12 h light/dark cycle, with ad libitum access to filtered water and chow (Envigo Teklad 2920x, irradiated). All mice underwent plantar incision in the right hind paw. Mice were anesthetized with 5% isoflurane at 2 L/min into a sealed induction chamber then maintained with 2.5% isoflurane at 500 mL/min through a nose cone. A 5-mm longitudinal incision was created, the flexor digitorum brevis muscle was elevated, and then a longitudinal incision was made through it. Two skin sutures closed the wound, and Polysporin antibiotic was applied. The mice were subcutaneously injected with either dexamethasone (DEXA; 0.5 mg/kg/day) or saline (PBS) once per day from the day before surgery to day 6 after surgery. Also, mice were administered 100 ug/kg/day (p.o.) of beraprost sodium, a PTGIR agonist, or saline from day 5 to 8 after plantar incision surgery. Mechanical sensitivity tests were performed using von Frey filaments (using the up-down method of Dixon) before and after the surgery on days 1, 7, 9, 14, 21 and 35. Mice were individually acclimated for at least 1 hour in transparent Plexiglas enclosures (5 cm×8.5 cm by 6 cm) before withdrawal thresholds were measured.

[3] = system: mice with chronic constriction injury (CCI) of the sciatic nerve; assay: Chronic constriction injury (CCI) neuropathic pain, von Frey mechanical paw-withdrawal threshold; details: drug daily Day 0 to Day 6, vs saline
Procedure: Mice: CD-1 male and female mice aged 6-12 weeks (ICR:Crl, Charles River, St. Constant, QC) were used in these experiments. All mice were housed in standard shoebox cages with 2-4 (same-sex) per cage in a light (14:10 h, lights on at 07:00 h) and temperature-controlled (20±1° C.) environment with ad libidum access to food (Harlan Teklad 8604) and tap water. Mice were acclimated to the vivarium for 7 days post-arrival and before testing. Each mouse was used in a single drug experiment. Equal numbers of male and female mice were included in each cohort. Drugs: Dexamethasone (PromoCell, Heidelberg, Germany) was administered via daily subcutaneous injections at a dosage of 0.5 mg/kg/day. […] Before and after all injuries, mechanical paw-withdrawal threshold was measured with von Frey filaments using the up-down staircase method of Dixon (Chaplan et al., 1994), as previously described (Mogil et al., 2006). […] To quantify the acute effects of drugs on mechanical thresholds during drug exposure (on Day 4-6 after CCI or CFA), the percentage of maximum possible allodynia was quantified as: % allodynia=[(baseline threshold−post-drug threshold)/baseline threshold]×100. […] To quantify the duration of the entire CCI- or CFA-induced allodynic episode, the day-by-day mechanical thresholds of each subject was considered. […]

[4] = DEXA 0.5 mg/kg/day s.c. plus beraprost sodium 100 ug/kg/day p.o. day 5 to 8

Question: For `CN1CC[C@]23c4c5ccc(O)c4O[C@H]2[C@@H](O)C=C[C@H]3[C@H]1C5` [morphine], which “allodynia during the administration period after CFA” value [1] is on record?
Answer: The value was “reduced allodynia”.

Question: And the “duration of the overall allodynia episode produced by CFA” value [1]?
Answer: The value was “without affecting the overall duration”.

Question: With `CC#CCC(C)[C@H](O)/C=C/[C@@H]1[C@H]2c3cccc(CCCC(=O)O)c3O[C@H]2C[C@H]1O` (mixture of isomers) [beraprost, beraprost sodium] as the molecule, how does the “long-lasting DEXA-induced hyperalgesia after plantar incision” value [2, 4] read?
Answer: Its value is “prevented long-lasting DEXA-induced hyperalgesia”.

Question: And the “time to recovery after plantar incision” value [2, 4]?
Answer: The value was “recovered after one week”.

Question: What about the “duration of hypersensitivity after plantar incision” value ([2]; DEXA 0.5 mg/kg/day s.c., no beraprost) of the same molecule?
Answer: The value was “up to one month”.

Question: With `C[C@@H]1C[C@H]2[C@@H]3CCC4=CC(=O)C=C[C@]4(C)[C@@]3(F)[C@@H](O)C[C@]2(C)[C@@]1(O)C(=O)CO` [dexamethasone, Dexamethasone] as the molecule, how does the “hind paw allodynia at the end of the treatment period after CCI” value ([3]; day 6) read?
Answer: The value was “no effect”.

Question: Which “allodynia during the administration period after CFA” value [1] does the source give for `NCC1(CC(=O)O)CCCCC1` [gabapentin] here?
Answer: Its value is “reduced allodynia”.

Question: And the “duration of the overall allodynia episode produced by CFA” value [1]?
Answer: Its value is “without affecting the overall duration”.

Question: Which results are given for `O=C(O)Cc1ccccc1Nc1c(Cl)cccc1Cl` [diclofenac, Diclofenac]?
Answer: recovery to baseline / duration of CCI-induced allodynia [3]: prolong the duration; allodynia during the administration period after CFA [1]: reduced allodynia; duration of the overall allodynia episode produced by CFA [1]: significantly prolonged the duration

Question: Which results are given for `CCN(CC)CC(=O)Nc1c(C)cccc1C` [lidocaine, Lidocaine]?
Answer: allodynia during the administration period after CFA [1]: reduced allodynia; duration of the overall allodynia episode produced by CFA [1]: without affecting the overall duration

B1: S100A9: neutrophil-released alarmin protein, injected into the hind paw at 1 μg/day (protein, UniProt P31725 2-113, looked up)
Protein S100-A9: ANKAPSQMERSITTIIDTFHQYSRKEGHPDTLSKKEFRQMVEAQLATFMKKEKRNEALINDIMEDLDTNQDNQLSFEECMMLMAKLIFACHEKLHENNPRGHGHSHGKGCGK
Question: With B1 as the molecule, how does the “development of allodynia after CFA in dexamethasone-treated mice” value [1] read?
Answer: Its value is “prevented the development of allodynia entirely”.

Question: And the “duration of CFA allodynia in the absence of dexamethasone” value [1]?
Answer: The value was “neither neutrophils nor S100A8/A9 significantly affected the duration”.

Question: And the “CFA-induced mechanical allodynia in the absence of dexamethasone” value [1]?
Answer: The value was “No effect”.

B2: S100A8: neutrophil-released alarmin protein, injected into the hind paw at 1 μg/day (protein, UniProt P27005 2-89, looked up)
Protein S100-A8: PSELEKALSNLIDVYHNYSNIQGNHHALYKNDFKKMVTTECPQFVQNINIENLFRELDINSDNAINFEEFLAMVIKVGVASHKDSHKE
Question: With B2 as the molecule, how does the “development of allodynia after CFA in dexamethasone-treated mice” value [1] read?
Answer: Its value is “prevented the development of allodynia entirely”.

Question: And the “duration of CFA allodynia in the absence of dexamethasone” value [1]?
Answer: The value was “neither neutrophils nor S100A8/A9 significantly affected the duration”.

Question: What about the “CFA-induced mechanical allodynia in the absence of dexamethasone” value [1] of the same molecule?
Answer: Its value is “No effect”.
